Results taken from ChEMBL document CHEMBL5052843, “Inhibitors of apol1 and methods of using same” (2020).

How the values were obtained:
Apolipoprotein L1 = Apolipoprotein L1 (Homo sapiens, UniProt O14791); assay: Inhibition of APOL1 G1 variant in human HEK293-T-REx cells measured by Thallium assay; format: cell-based
[1] = tested on: Trypanosoma brucei brucei; assay: Antitrypanosomal activity against Trypanosoma brucei brucei assessed as trypanosome lysis using recombinant APOL1 protein G1 variant and measured by Alamar blue based fluorescene assay; format: functional, organism-based

Row | Structure (SMILES) | IC50 (Apolipoprotein L1) [nM] | IC50 [1] [nM]
1 | O=C(CCc1c(-c2ccccc2)[nH]c2c(Br)cccc12)N[C@@H]1C(=O)NC[C@H]1O | < 250 | < 250
2 | O=C(CCc1c(-c2ccc(F)cc2)[nH]c2c(Cl)cc(F)cc12)N[C@@H]1C(=O)NC[C@H]1O | < 250 | < 250
3 | Cc1ccc(-c2[nH]c3ccccc3c2CCC(=O)N[C@@H]2C(=O)NC[C@H]2O)cc1F | < 250 | < 250
4 | O=C(CCc1c(-c2ccccc2)[nH]c2c(F)c(F)ccc12)N[C@@H]1C(=O)NC[C@H]1O | < 250 | < 250
5 | O=C(CCc1c(-c2ccc(F)cc2)[nH]c2c(F)cc(F)cc12)N[C@H]1CCNC1=O | < 250 | < 250
6 | O=C(CCc1c(-c2ccc(F)cc2)[nH]c2c(F)cccc12)N[C@@H]1C(=O)NC[C@H]1O | < 250 | < 250
7 | N#Cc1cc(F)cc2c(CCC(=O)N[C@@H]3C(=O)NC[C@H]3O)c(-c3ccc(F)cc3)[nH]c12 | < 250 | < 250
8 | O=C(CCc1c(-c2ccc(F)cc2)[nH]c2c(F)cc(F)cc12)N[C@@H]1C(=O)NC[C@@H]1O | < 250 | < 250
9 | O=C(CCc1c(-c2ccccc2)[nH]c2c(F)cc(F)cc12)N[C@@H]1C(=O)NC[C@H]1O | < 250 | < 250
10 | O=C(CCc1c(-c2ccc(F)cc2)[nH]c2c(F)cc(F)cc12)N[C@H]1C[C@H](CO)NC1=O | > 1000 | > 1000
11 | O=C(CCc1c(-c2ccc(F)cc2)[nH]c2c(F)cc(F)cc12)N[C@@H]1C(=O)NC[C@H]1O [INAXAPLIN] | < 250 | < 250
12 | Cc1ccc(-c2[nH]c3ccccc3c2CCC(=O)N[C@@H]2C(=O)NC[C@H]2O)cc1 | < 250 | < 250
13 | O=C(CCc1c(-c2cc(F)cc(F)c2)[nH]c2ccccc12)N[C@@H]1C(=O)NC[C@H]1O | 250 | 250
14 | O=C(CCc1c(-c2ccccc2)[nH]c2cc(F)ccc12)N[C@@H]1C(=O)NC[C@H]1O | < 250 | < 250
15 | O=C(CCc1c(-c2ccc(F)cc2)[nH]c2c(F)cc(Br)cc12)N[C@H]1CCNC1=O | < 250 | < 250
16 | CC1(NC(=O)CCc2c(-c3ccc(F)cc3)[nH]c3c(F)cc(F)cc23)CCNC1=O (stereo not given) | 250 | < 250
17 | O=C1NC[C@@H](O)[C@@H]1NC(=O)C(F)(F)Cc1c(-c2ccc(F)cc2)[nH]c2c(F)cc(F)cc12 | < 250 | < 250
18 | O=C(CCc1c(-c2ccc(F)cc2)[nH]c2c(F)cc(F)cc12)N[C@@H]1CCNC1=O | 250 | < 250
19 | O=C(CCc1c(-c2ccc(F)cc2)[nH]c2ccc(C(F)(F)F)cc12)N[C@@H]1C(=O)NC[C@H]1O | < 250 | < 250
20 | O=C(CCc1c(-c2ccccc2)[nH]c2cc(F)c(F)cc12)N[C@@H]1C(=O)NC[C@H]1O | < 250 | < 250
21 | O=C(CCc1c(-c2cc(F)cc(F)c2)[nH]c2c(F)cc(F)cc12)N[C@@H]1C(=O)NC[C@H]1O | < 250 | 250
22 | O=C(CCc1c(-c2ccc(C(F)F)cc2)[nH]c2ccccc12)N[C@@H]1C(=O)NC[C@H]1O | < 250 | < 250
23 | N#Cc1ccc(-c2[nH]c3ccccc3c2CCC(=O)N[C@@H]2C(=O)NC[C@H]2O)cc1 | < 250 | < 250
24 | O=C(CCc1c(-c2ccc(F)cc2)[nH]c2ccc(OCc3ccccc3)cc12)N[C@H]1CCNC1=O | 250 | 250
25 | Cc1ccc2[nH]c(-c3ccc(Br)cc3)c(CCC(=O)N[C@H]3CCNC3=O)c2c1 | < 250 | < 250

Row | Structure (SMILES) | IC50 (Apolipoprotein L1) [nM] | IC50 [1] [nM]
26 | O=C(CCc1c(-c2ccc(F)cc2)[nH]c2ccc(F)cc12)NC1CCNC1=O (stereo not given) | < 250 | < 250
27 | Cc1ccc(-c2[nH]c3ccccc3c2CCC(=O)N[C@@H]2C(=O)NC[C@H]2O)c(F)c1 | < 250 | < 250
28 | Cc1cc(F)c2[nH]c(-c3ccc(F)cc3)c(CCC(=O)N[C@@H]3C(=O)NC[C@H]3O)c2c1 | < 250 | < 250
29 | O=C(CCc1c(-c2ccc(C(F)(F)F)cc2)[nH]c2ccccc12)N[C@@H]1C(=O)NC[C@H]1O | < 250 | < 250
30 | O=C(CCc1c(-c2ccc(F)cc2)[nH]c2c(F)cc(Cl)cc12)N[C@@H]1C(=O)NC[C@H]1O | < 250 | < 250
31 | [2H]C(C(=O)N[C@@H]1C(=O)NC[C@H]1O)C([2H])c1c(-c2ccc(F)cc2)[nH]c2c(F)cc(F)cc12 (stereo not given in full) | < 250 | < 250
32 | O=C(CCc1c(-c2ccccc2)[nH]c2ccc(F)cc12)N[C@H]1CCNC1=O | < 250 | < 250
33 | O=C(CCc1c(-c2ccc(OC(F)F)cc2)[nH]c2c(F)cc(F)cc12)N[C@@H]1C(=O)NC[C@H]1O | < 250 | < 250
34 | O=C(CCc1c(-c2ccc(F)cc2)[nH]c2c(Cl)cccc12)N[C@@H]1C(=O)NC[C@H]1O | < 250 | < 250
35 | O=C(CCc1c(-c2ccc(OC(F)(F)F)cc2)[nH]c2ccccc12)N[C@@H]1C(=O)NC[C@H]1O | < 250 | < 250
36 | CN(C(=O)CCc1c(-c2ccc(F)cc2)[nH]c2ccc(F)cc12)C1CCNC1=O (stereo not given) | 250 | 250
37 | O=C(CCc1c(-c2ccccc2)[nH]c2ccc(Cl)cc12)N[C@@H]1C(=O)NC[C@H]1O | < 250 | < 250
38 | COc1cc(F)cc2c(CCC(=O)N[C@@H]3C(=O)NC[C@H]3O)c(-c3ccc(F)cc3)[nH]c12 | < 250 | < 250
39 | O=C(CCc1c(-c2ccccc2)[nH]c2cc(F)cc(F)c12)N[C@@H]1C(=O)NC[C@H]1O | < 250 | < 250
40 | O=C(CCc1c(-c2ccc(OC(F)F)cc2)[nH]c2c(F)cc(F)cc12)N[C@H]1CCNC1=O | < 250 | < 250
41 | O=C(CCc1c(-c2ccc(Cl)c(F)c2)[nH]c2ccccc12)N[C@@H]1C(=O)NC[C@H]1O | < 250 | < 250
42 | O=C(CCc1c(-c2ccc(F)cc2)[nH]c2c(F)cccc12)N[C@H]1CCNC1=O | < 250 | < 250
43 | O=C(CCc1c(-c2ccc(F)cc2)[nH]c2ccc(F)cc12)N[C@@H]1C(=O)NC[C@H]1O | < 250 | < 250
44 | O=C(CCc1c(-c2ccc(F)cc2)[nH]c2ccccc12)N[C@@H]1C(=O)NC[C@H]1O | < 250 | < 250
45 | O=C(CCc1c(-c2ccc(F)cc2)[nH]c2c(F)c(F)ccc12)N[C@@H]1C(=O)NC[C@H]1O | < 250 | < 250
46 | O=C(CCc1c(-c2ccccc2)[nH]c2c(F)cccc12)N[C@@H]1C(=O)NC[C@H]1O | < 250 | < 250
47 | O=C(CCc1c(-c2ccc(F)cc2)[nH]c2c(F)cc(F)cc12)N[C@H]1C[C@@H](CO)NC1=O | > 1000 | > 1000
48 | N#Cc1ccc(-c2[nH]c3c(F)cc(F)cc3c2CCC(=O)N[C@H]2CCNC2=O)cc1 | < 250 | < 250
49 | CC1C[C@H](NC(=O)CCc2c(-c3ccc(F)cc3)[nH]c3c(F)cc(F)cc23)C(=O)N1 (stereo not given in full) | 250 | 250
50 | O=C(CCc1c(-c2ccccc2)[nH]c2c(C(F)(F)F)cccc12)N[C@@H]1C(=O)NC[C@H]1O | 250 | > 1000
